Entries after “also recorded” stand apart in the source; their conditions may differ.
Assay: Solubility of neat fluorescent dye in water-based PVA/PAA binder solution
Conditions: 0.5 wt % fluorescent dye in binder solution (PVA, PAA, ethylene glycol, ethylene glycol butyl ether, water), stirred at 50-70° C.
Protocol: To determine whether neat dyes (e.g., unencapsulated) could be incorporated into binder solutions, various fluorescent materials were added to a binder solution including 1-7 wt % PVA, 0.5-3 wt % PAA, 2-6 wt % ethylene glycol, 4-10 wt % ethylene glycol butyl ether, and the balance water to form Samples F-H, and Comparative Samples 1-5. In particular, from 0.2-0.5 wt % of the fluorescent material (DayGlo, UMCCorp, Aldrich) was added to the binder solution and stirred on a hot plate at 50-70° C. to dissolve the dye into the binder solution.

SMILES	Solubility at 0.5 wt %	Solubility at 0.5 wt % (listed as Sample H)
CCCN(CCC)c1nc(Nc2ccccc2)nc(Nc2ccc(/C=C/c3ccc(Cc4nc(Cc5ccccc5)nc(N(OCC)OCC)n4)cc3S(=O)(=O)[O-])c(S(=O)(=O)[O-])c2)n1.[Na+].[Na+] [FB 113]	Partially soluble −	–
O=S(=O)([O-])c1cc(Nc2nc(CCO)nc(Nc3ccccc3)n2)ccc1/C=C/c1ccc(Nc2nc(NCO)nc(Nc3ccccc3)n2)cc1S(=O)(=O)[O-].[Na+].[Na+] [FB 85]	Partially soluble −	–
O=S(=O)([O-])c1ccccc1C=Cc1ccc(-c2ccc(C=Cc3ccccc3S(=O)(=O)[O-])cc2)cc1.[Na+].[Na+] [FB 351]	Soluble	fully soluble; also recorded: good solubility
CCCN(CCO)c1nc(Nc2ccccc2)nc(Nc2ccc(/C=C/c3ccc(Nc4nc(Nc5ccccc5)nc(N(CCO)CCO)n4)cc3S(=O)(=O)[O-])c(S(=O)(=O)[O-])c2)n1.[Na+].[Na+] [FB 28]	Partially soluble −	–

Source: patent US11673323B2, “Fluorescent binders for use in monitoring additive manufacturing processes” (General Electric Company, priority 2020, dated 2023)
